These results are taken from patent US7192906B2, “Substituted pyrazole derivatives, production process thereof, and herbicide compositions containing the derivatives” (SDS Biotech K.K., priority 2001, dated 2007).

What all share (assay type): in vivo
One data set has as its system Ammannia multiflora. As to the kind of experiment: Test Example 3 paddy field treatment. Particulars: paddy field treatment, wettable powder, active ingredient 1 kg per hectare, 21st day after the dropping, index 0-5. The procedure: (§1) A plastic pot of 130 cm^2 was filled with paddy soil, and soil puddling was carried out to adjust the submerged depth to 4 cm. Subsequently, seeds of Echinochloa crusgalli, Monochoria vaginalis, Ammannia multiflora and Scirpus juncoides were sowed, and rice (Oryza sative, variety: Koshihikari) of two-leaf period was transplanted by 2 rice plants of 1 stub per pot at a depth of 3 cm. On the 10th day after the transplantation, the wettable powder prepared in Formulation Example 1 was diluted with water such that the amount of the active ingredient became 1 kg per hectare, and then dropped to diffuse on the water surface. On the 21st day after the dropping, observation and evaluation were carried out according to the aforesaid criteria.
(§2) Herbicidal activity was evaluated based on the following criteria.
(§3) • 5: herbicidal effect of not less than 90%, or phytotoxicity of 90% or more • 4: herbicidal effect of not less than 70% and less than 90%, or phytotoxicity of 70% or more and less than 90% • 3: herbicidal effect of not less than 50% and less than 70%, or phytotoxicity of 50% or more and less than 70% • 2: herbicidal effect of not less than 30% and less than 50%, or phytotoxicity of 30% or more and less than 50% • 1: herbicidal effect of not less than 10% and less than 30%, or phytotoxicity of 10% or more and less than 30% • 0: herbicidal effect of not less than 0% and less than 10%, or phytotoxicity of 0% or more and less than 10%

Another data set relates to Echinochloa crusgalli. The data set can be described thus: Test Example 3 paddy field treatment. Particulars: paddy field treatment, wettable powder, active ingredient 1 kg per hectare, 21st day after the dropping, index 0-5. The protocol:
as §1, §2, §3

The next data set deals with Monochoria vaginalis. As to the kind of experiment: Test Example 3 paddy field treatment. Particulars: paddy field treatment, wettable powder, active ingredient 1 kg per hectare, 21st day after the dropping, index 0-5. The procedure: as §1, §2, §3
The test system of another data set is Scirpus juncoides. The data set can be described thus: Test Example 3 paddy field treatment. Particulars: paddy field treatment, wettable powder, active ingredient 1 kg per hectare, 21st day after the dropping, index 0-5. The protocol:
as §1, §2, §3

Another data set concerns Rice (Oryza sativa). The data set can be described thus: Test Example 3 paddy field treatment, crop phytotoxicity. The settings on record: paddy field treatment, transplanted rice Koshihikari, wettable powder, active ingredient 1 kg per hectare, 21st day after the dropping, index 0-5. The protocol: as §1, §2, §3
The subject of the next data set is Chenopodium album. The data set can be described thus: Test Example 1 upland field foliage treatment. Particulars: Table 4, upland field foliage treatment, index 0-5. The procedure: (§4) A plastic pot of 130 cm^2 was filled with upland soil. Subsequently, weed seeds of Setaria viridis, Digitaria adscendens, Chenopodium album and Stellaria media, and crop seeds of soybean (Glycine max) and wheat (Triticum aestivum), were sowed and covered with soil of about 1 cm thickness. On the 14th day after the sowing, the wettable powder prepared in Formulation Example 1 was diluted with water such that the amount of the active ingredient became 1 kg per hectare, and then uniformly applied to the plant leaf surfaces. On the 21st day after the application, observation and evaluation were carried out according to the criteria described below.
as §2, §3

Another data set concerns Digitaria adscendens. The data set can be described thus: Test Example 1 upland field foliage treatment. Particulars: Table 4, upland field foliage treatment, index 0-5. The procedure: as §4, §2, §3
Another data set relates to Setaria viridis. The data set can be described thus: Test Example 1 upland field foliage treatment. Particulars: Table 4, upland field foliage treatment, index 0-5. The procedure: as §4, §2, §3
In the next data set the test system is Stellaria media. As to the kind of experiment: Test Example 1 upland field foliage treatment. The settings on record: Table 4, upland field foliage treatment, index 0-5. The protocol:
as §4, §2, §3

Another data set deals with soybean (Glycine max). As to the kind of experiment: Test Example 1 upland field foliage treatment, crop phytotoxicity. Particulars: Table 4, upland field foliage treatment, index 0-5. The procedure: as §4, §2, §3
The subject of data set [1] is wheat (Triticum aestivum). Described as above. Particulars: Table 4, upland field foliage treatment, index 0-5. The protocol:
as §4, §2, §3

Regarding `CON=C(Cn1cc(C)c(-c2ccccc2)n1)C(=O)NC(C)c1ccccc1` (centres unmarked) [Compound 31], the “Herbicidal activity AM” value in the data set with Ammannia multiflora was 4 (herbicidal effect of not less than 70% and less than 90%, or phytotoxicity of 70% or more and less than 90%). The “Herbicidal activity EC” value with Echinochloa crusgalli was 3 (herbicidal effect of not less than 50% and less than 70%, or phytotoxicity of 50% or more and less than 70%). Moreover, the “Herbicidal activity MV” value in the data set on Monochoria vaginalis is 5 (herbicidal effect of not less than 90%, or phytotoxicity of 90% or more). Further, in the data set on Scirpus juncoides, the “Herbicidal activity SJ” value was 4 (herbicidal effect of not less than 70% and less than 90%, or phytotoxicity of 70% or more and less than 90%). The “Herbicidal activity OS (phytotoxicity to rice)” value (“Herbicidal activity OS” below) in the data set with Rice (Oryza sativa) is 0 (herbicidal effect of not less than 0% and less than 10%, or phytotoxicity of 0% or more and less than 10%).
For the compound `CNC(=O)C(Cn1cc(C)c(-c2ccccc2C)n1)=NOC` [Compound 35], the “Herbicidal activity AM” value in the data set on Ammannia multiflora is 4 (herbicidal effect of not less than 70% and less than 90%, or phytotoxicity of 70% or more and less than 90%). In addition, in the data set with Echinochloa crusgalli, the “Herbicidal activity EC” value is 5 (herbicidal effect of not less than 90%, or phytotoxicity of 90% or more). Further, the “Herbicidal activity MV” value in the data set with Monochoria vaginalis was 4 (herbicidal effect of not less than 70% and less than 90%, or phytotoxicity of 70% or more and less than 90%). For the same compound, the “Herbicidal activity SJ” value in the data set with Scirpus juncoides was 4 (herbicidal effect of not less than 70% and less than 90%, or phytotoxicity of 70% or more and less than 90%). Further, the “Herbicidal activity OS” value in the data set with Rice (Oryza sativa) is 0 (herbicidal effect of not less than 0% and less than 10%, or phytotoxicity of 0% or more and less than 10%).
For the compound `CNC(=O)C(Cn1cc(C)c(-c2ccc(C(C)C)cc2)n1)=NOC` [Compound 38], the “Herbicidal activity AM” value in the data set with Ammannia multiflora is 5 (herbicidal effect of not less than 90%, or phytotoxicity of 90% or more). Moreover, the “Herbicidal activity EC” value in the data set with Echinochloa crusgalli was 5 (herbicidal effect of not less than 90%, or phytotoxicity of 90% or more). Further, the “Herbicidal activity MV” value with Monochoria vaginalis was 5 (herbicidal effect of not less than 90%, or phytotoxicity of 90% or more). In addition, in the data set on Scirpus juncoides, the “Herbicidal activity SJ” value was 5 (herbicidal effect of not less than 90%, or phytotoxicity of 90% or more). Moreover, the “Herbicidal activity OS” value in the data set with Rice (Oryza sativa) is 0 (herbicidal effect of not less than 0% and less than 10%, or phytotoxicity of 0% or more and less than 10%).
With `CNC(=O)C(Cn1cc(C)c(-c2ccc(C(F)(F)F)cc2)n1)=NOC` [Compound 40], in the data set on Ammannia multiflora, the “Herbicidal activity AM” value is on record as 5 (herbicidal effect of not less than 90%, or phytotoxicity of 90% or more). Further, the “Herbicidal activity EC” value in the data set on Echinochloa crusgalli is 5 (herbicidal effect of not less than 90%, or phytotoxicity of 90% or more). Moreover, the “Herbicidal activity MV” value with Monochoria vaginalis is given as 5 (herbicidal effect of not less than 90%, or phytotoxicity of 90% or more). Also, the “Herbicidal activity SJ” value in the data set with Scirpus juncoides is on record as 5 (herbicidal effect of not less than 90%, or phytotoxicity of 90% or more). The “Herbicidal activity OS” value in the data set with Rice (Oryza sativa) was 0 (herbicidal effect of not less than 0% and less than 10%, or phytotoxicity of 0% or more and less than 10%).
Turning to `CNC(=O)C(Cn1cc(C)c(-c2ccc(C(F)(F)F)cc2F)n1)=NOC` [Compound 85], the “Herbicidal activity CA: Chenopodium album” value in the data set with Chenopodium album is 5 (herbicidal effect of not less than 90%, or phytotoxicity of 90% or more). The “Herbicidal activity DA: Digitaria adscendens” value with Digitaria adscendens is 4 (herbicidal effect of not less than 70% and less than 90%, or phytotoxicity of 70% or more and less than 90%). In addition, the “Herbicidal activity SV: Setaria viridis” value with Setaria viridis is 4 (herbicidal effect of not less than 70% and less than 90%, or phytotoxicity of 70% or more and less than 90%). Also, in the data set with Stellaria media, the “Herbicidal activity SM: Stellaria media” value is 5 (herbicidal effect of not less than 90%, or phytotoxicity of 90% or more). In addition, the “Herbicidal activity (phytotoxicity) GM: Soybean (Glycine max)” value in the data set on soybean (Glycine max) is 0 (herbicidal effect of not less than 0% and less than 10%, or phytotoxicity of 0% or more and less than 10%). Moreover, in [1], the “Herbicidal activity (phytotoxicity) TA: Wheat (Triticum aestivum)” value is 0 (herbicidal effect of not less than 0% and less than 10%, or phytotoxicity of 0% or more and less than 10%).
